According to article PMC10934500, “Exploring the Anti-Diabetic Potential of Quercetagitrin through Dual Inhibition of PTPN6 and PTPN9” (Nutrients, 2024):

Biological target: PTPN6 (Homo sapiens, UniProt P29350)
Assay: DiFMUP fluorescence phosphatase assay with recombinant enzyme purified from E. coli
Type: biochemical

PTPN6, sequence (P29350 whole entry): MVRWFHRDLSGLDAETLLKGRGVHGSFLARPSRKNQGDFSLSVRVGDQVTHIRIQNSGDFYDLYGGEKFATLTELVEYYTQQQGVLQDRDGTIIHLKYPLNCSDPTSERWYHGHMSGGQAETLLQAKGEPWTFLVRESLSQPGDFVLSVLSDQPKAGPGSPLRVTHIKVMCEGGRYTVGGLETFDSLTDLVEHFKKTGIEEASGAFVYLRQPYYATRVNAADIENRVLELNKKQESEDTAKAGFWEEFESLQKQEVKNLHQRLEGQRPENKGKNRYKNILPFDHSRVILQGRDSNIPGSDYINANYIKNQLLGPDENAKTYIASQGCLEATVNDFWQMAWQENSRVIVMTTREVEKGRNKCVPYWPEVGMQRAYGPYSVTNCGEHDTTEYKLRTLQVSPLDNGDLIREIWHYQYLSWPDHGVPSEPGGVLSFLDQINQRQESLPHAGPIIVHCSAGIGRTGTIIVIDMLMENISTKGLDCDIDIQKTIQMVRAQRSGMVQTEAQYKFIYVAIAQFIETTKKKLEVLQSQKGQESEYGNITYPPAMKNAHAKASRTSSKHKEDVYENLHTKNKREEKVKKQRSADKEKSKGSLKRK

IC50: 1000 nM
SMILES: O=c1c(O)c(-c2ccc(O)c(O)c2)oc2cc(O[C@@H]3O[C@H](CO)[C@@H](O)[C@H](O)[C@H]3O)c(O)c(O)c12 [QG, quercetagitrin]
